Data: ChEMBL document CHEMBL5252667, “Discovery and Optimization of a Novel Macrocyclic Amidinourea Series Active as Acidic Mammalian Chitinase Inhibitors” (ACS Med Chem Lett, 2023)
Values after ≈ are worked out from the molar mass of the structure shown.

Key:
Chitotriosidase-1 [1] = target: T1, Chitotriosidase-1 (Homo sapiens, UniProt Q13231); assay: Inhibition of human CHIT1 using 4-methylumbelliferyl-beta-D-N,N',N''-triacetylchitotriose as substrate assessed as substrate hydrolysis by measuring inhibition constant preincubated with compound for 20 mins and measured immediately after substrate addition by fluorescence based assay relative to control
Target sequence in this assay (Q13231 whole entry): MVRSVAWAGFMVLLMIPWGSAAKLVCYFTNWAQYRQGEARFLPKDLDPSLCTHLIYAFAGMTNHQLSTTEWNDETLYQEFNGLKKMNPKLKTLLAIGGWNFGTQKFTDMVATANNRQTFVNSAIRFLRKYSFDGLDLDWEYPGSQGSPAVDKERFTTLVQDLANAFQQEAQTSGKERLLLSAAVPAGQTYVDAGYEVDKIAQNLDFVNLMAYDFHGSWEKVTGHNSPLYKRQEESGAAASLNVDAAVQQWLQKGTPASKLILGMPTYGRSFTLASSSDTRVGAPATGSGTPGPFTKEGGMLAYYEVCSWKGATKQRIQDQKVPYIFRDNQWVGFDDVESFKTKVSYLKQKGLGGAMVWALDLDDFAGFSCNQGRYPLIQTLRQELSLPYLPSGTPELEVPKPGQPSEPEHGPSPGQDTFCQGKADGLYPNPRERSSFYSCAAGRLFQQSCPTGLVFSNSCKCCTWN

Candida = assay: Antifungal activity against Candida spp.; type: functional
[2] = Metabolic stability in human liver microsomes assessed as parent compound remaining in the presence of NADPH generating system by HPLC-UVMS analysis; type: ADME, Microsome
[3] = Aqueous solubility of the compound by HPLC-UV/MS analysis; type: physicochemical; details: water (aqueous)
[4] = Apparent permeability of compound in phosphate buffer by PAMPA assay; type: ADME
Chitotriosidase-1 [5] = target: T1, Chitotriosidase-1; assay: Inhibition of human CHIT1 using 4-methylumbelliferyl-beta-D-N,N',N''-triacetylchitotriose as substrate assessed as substrate hydrolysis at 10 uM preincubated with compound for 20 mins and measured immediately after substrate addition by fluorescence based assay relative to control
Target sequence in this assay (Q13231 22-466 limits assumed): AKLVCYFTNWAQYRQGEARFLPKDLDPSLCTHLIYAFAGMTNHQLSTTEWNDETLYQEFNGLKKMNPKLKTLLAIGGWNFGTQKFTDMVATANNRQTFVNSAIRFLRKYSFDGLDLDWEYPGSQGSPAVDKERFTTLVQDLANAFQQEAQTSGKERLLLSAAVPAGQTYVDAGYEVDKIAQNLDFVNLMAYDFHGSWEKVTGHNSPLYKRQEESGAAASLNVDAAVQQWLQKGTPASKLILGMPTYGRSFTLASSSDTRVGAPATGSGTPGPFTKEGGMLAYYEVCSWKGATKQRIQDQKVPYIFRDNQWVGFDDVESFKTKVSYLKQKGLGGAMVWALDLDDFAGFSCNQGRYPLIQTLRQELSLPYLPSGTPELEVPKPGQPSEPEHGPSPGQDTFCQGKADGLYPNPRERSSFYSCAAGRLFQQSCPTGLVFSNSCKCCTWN

[6] = target: Acidic mammalian chitinase (Homo sapiens, UniProt Q9BZP6); assay: Inhibition of human AMCase using 4-methylumbelliferyl-beta-D-N,N',N''-triacetylchitotriose as substrate assessed as substrate hydrolysis by measuring inhibition constant preincubated with compound for 20 mins and measured immediately after substrate addition by fluorescence based assay
Sequence of Acidic mammalian chitinase (Q9BZP6 whole entry): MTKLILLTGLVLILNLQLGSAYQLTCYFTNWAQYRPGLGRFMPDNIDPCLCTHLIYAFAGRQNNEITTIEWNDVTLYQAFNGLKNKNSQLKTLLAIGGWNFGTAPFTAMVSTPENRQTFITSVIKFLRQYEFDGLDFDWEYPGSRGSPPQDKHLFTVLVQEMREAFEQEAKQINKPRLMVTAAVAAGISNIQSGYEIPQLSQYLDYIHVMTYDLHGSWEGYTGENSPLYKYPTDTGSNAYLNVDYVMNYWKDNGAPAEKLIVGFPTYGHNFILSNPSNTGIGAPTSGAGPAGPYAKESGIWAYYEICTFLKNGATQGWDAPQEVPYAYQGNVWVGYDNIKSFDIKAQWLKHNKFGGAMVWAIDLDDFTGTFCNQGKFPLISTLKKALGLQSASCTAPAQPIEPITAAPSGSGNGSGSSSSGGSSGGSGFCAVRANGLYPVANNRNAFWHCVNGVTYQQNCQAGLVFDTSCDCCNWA

In the case of CNC(=O)NC(=N)NCCCCCCCCN1CCCc2ccccc2COc2cc(Cl)ccc2CNC(=N)NC1=O, the Ki (Chitotriosidase-1 [1]) is reported as > 50 µM.
For CNC(=O)NC(=N)NCCCCCCCCN1CCCCCCCCNC(=N)NC1=O, the Ki (Chitotriosidase-1 [1]) was > 50 µM.
C/C=C/CNC(=N)NCCCCCCCCN1CCCc2ccccc2COc2ccccc2CNC(=N)NC1=O gave an MIC (Candida) of 1 µg/mL (≈ 0.00178 mM).
For CNC(=S)NC(=N)NCCCCCCCCN1CCCCCCOc2ccccc2CNC(=N)NC1=O, the Ki (Chitotriosidase-1 [1]) was > 50 µM.
For CNC(=O)NC(=N)NCCCCCCCCN1CCCc2cc(Cl)ccc2COc2ccccc2CNC(=N)NC1=O, the Stability [2] was 91.5%, the solubility [3] was 23100 µg/mL (≈ 38.6 mM) and the Papp [4] was < 0.5 ×10⁻⁶ cm/s.
For Cn1cnc2c1c(=O)n(CCCn1c(=O)c3nc[nH]c3n(C)c1=O)c(=O)n2C, the Ki (Chitotriosidase-1 [1]) was 0.0014 µM, the inhibition (Chitotriosidase-1 [5]) was 98% and the Ki [6] was 0.26 µM.
In the case of CNC(=O)NC(=N)NCCCCCCCCN1CCCc2ccccc2COc2cc(C)ccc2CNC(=N)NC1=O, the Ki (Chitotriosidase-1 [1]) is reported as > 50 µM.
With CNC(=O)NC(=N)NCCCCCCCCN1CCCc2ccc(OC(F)(F)F)cc2COc2ccccc2CNC(=N)NC1=O the Ki [6] was > 50 µM.
In the case of CNC(=O)NC(=N)NCCCCCCCCN1CCCc2ccc(F)cc2COc2ccccc2CNC(=N)NC1=O, the Stability [2] is reported as 98.5%, the solubility [3] is reported as 2850 µg/mL (≈ 4.9 mM) and the Papp [4] is reported as < 0.5 ×10⁻⁶ cm/s.
For C/C=C/CNC(=N)NCCCCCCCCN1CCCCCCCCNC(=N)NC1=O, the MIC (Candida) was 1 µg/mL (≈ 0.0023 mM).
C/C=C/CNC(=N)NCCCCCCCCN1CCCCCCOc2ccccc2CNC(=N)NC1=O showed an MIC (Candida) of 1 µg/mL (≈ 0.00195 mM).
For CNC(=O)NC(=N)NCCCCCCCCN1CCCc2ccccc2COc2ccccc2CNC(=N)NC1=O, the Stability [2] was 76.2%, the solubility [3] was 2010 µg/mL (≈ 3.57 mM) and the Papp [4] was < 0.5 ×10⁻⁶ cm/s.
For CNC(=O)NC(=N)NCCCCCCCCN1CCCc2ccccc2COc2ccc(OC)cc2CNC(=N)NC1=O, the Stability [2] was 98.7%, the solubility [3] was 3080 µg/mL (≈ 5.17 mM) and the Papp [4] was < 0.5 ×10⁻⁶ cm/s.
With CNC(=O)NC(=N)NCCCCCCCCN1CCCCCOc2ccccc2CNC(=N)NC1=O the Stability [2] was 80.9%, the solubility [3] was 1810 µg/mL (≈ 3.6 mM) and the Papp [4] was < 0.5 ×10⁻⁶ cm/s.
